This assay concerns the target Neuraminidase (Influenza A virus (A/Puerto Rico/8/1934(H1N1)), UniProt P03468). Kind of assay: Inhibition of influenza A virus A/PR/8/34(H1N1) neuraminidase assessed as fluorescent product using MUNANA as substrate after 60 mins by fluorescence analysis.
Chain of Neuraminidase (Influenza A virus (A/Puerto Rico/8/1934(H1N1)), UniProt P03468) (P03468 whole entry): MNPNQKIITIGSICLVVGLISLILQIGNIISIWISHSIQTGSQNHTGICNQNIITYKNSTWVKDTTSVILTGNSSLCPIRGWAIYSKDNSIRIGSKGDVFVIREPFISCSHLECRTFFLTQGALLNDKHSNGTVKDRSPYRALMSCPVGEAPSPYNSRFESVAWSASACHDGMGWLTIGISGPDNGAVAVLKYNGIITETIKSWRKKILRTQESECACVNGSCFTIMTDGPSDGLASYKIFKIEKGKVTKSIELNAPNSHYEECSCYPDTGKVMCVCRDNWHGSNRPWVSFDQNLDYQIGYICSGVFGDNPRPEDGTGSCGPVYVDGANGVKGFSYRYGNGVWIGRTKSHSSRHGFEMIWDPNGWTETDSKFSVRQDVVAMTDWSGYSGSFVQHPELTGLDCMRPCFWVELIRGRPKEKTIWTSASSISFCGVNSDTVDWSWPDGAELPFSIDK
For `O=c1cc(-c2ccc(O)cc2)oc2c(CN3CCC(Cc4ccccc4)CC3)c(O)cc(O)c12`, the IC50 came out at 46.1 µM.

In the case of `C[C@@H]1COC[C@H](C)N1Cc1c(O)c(O)c(O)c2c(=O)cc(-c3ccccc3)oc12`, the IC50 turned out to be 591 µM.

`CC1CCCN(Cc2c(O)cc(O)c3c(=O)cc(-c4ccc(O)cc4)oc23)C1` (stereo not given): the IC50 worked out at 52.5 µM.

Take `O=c1cc(-c2ccccc2)oc2c(CN3CCN(CCO)CC3)c(O)cc(O)c12`: the 50% inhibitory concentration (IC50) turned out to be 135 µM.

As for `O=c1cc(-c2ccccc2)oc2c(CN3CCC(O)CC3)c(O)cc(O)c12`, the IC50 was 295 µM.

As for `O=c1cc(-c2ccc(O)c(O)c2)oc2c(CN3CCC(CO)CC3)c(O)cc(O)c12`, the concentration for half-maximal inhibition (IC50) is 64.2 µM.

On to `O=c1cc(-c2ccccc2)oc2c(CN3CCOCC3)c(O)cc(O)c12`, for which the concentration for half-maximal inhibition (IC50) amounted to 448 µM.

As to `CC1CCCCN1Cc1c(O)c(O)c(O)c2c(=O)cc(-c3ccccc3)oc12` (stereo not given), the IC50 was determined as 99.7 µM.

`O=c1cc(-c2ccccc2)oc2c(CN3CCC(O)CC3)c(O)c(O)c(O)c12`: the concentration for half-maximal inhibition (IC50) was found to be 91.5 µM.

As for `O=c1cc(-c2ccc(O)cc2)oc2c(CN3CCC(O)CC3)c(O)cc(O)c12`, the half-inhibitory concentration (IC50) was found to be 168 µM.

For `O=c1cc(-c2ccc(O)cc2)oc2c(CN3CCC(CO)CC3)c(O)cc(O)c12`, the half-inhibitory concentration (IC50) worked out at 40.9 µM.

Regarding `O=c1cc(-c2ccc(O)c(O)c2)oc2c(CN3CCCCC3)c(O)cc(O)c12`, the half-maximal inhibitory concentration (IC50) amounted to 62.9 µM.

Turning to `CN1CCN(Cc2c(O)c(O)c(O)c3c(=O)cc(-c4ccccc4)oc23)CC1`, the half-inhibitory concentration (IC50) is 302 µM.

Take `O=c1cc(-c2ccccc2)oc2c(CN3CCC(CO)CC3)c(O)c(O)c(O)c12`: the IC50 amounted to 470 µM.

For the compound `CN1CCN(Cc2c(O)cc(O)c3c(=O)cc(-c4ccc(O)c(O)c4)oc23)CC1`, the IC50 was determined as 53.8 µM.

In the case of `O=c1cc(-c2ccc(O)cc2)oc2c(CN3CCCC3)c(O)cc(O)c12`, the IC50 is 44.5 µM.

With `O=c1cc(-c2ccc(O)cc2)oc2c(CN3CCCC(O)C3)c(O)cc(O)c12` (stereo not given), the IC50 is 45.3 µM.

For `C[C@@H]1COC[C@H](C)N1Cc1c(O)cc(O)c2c(=O)cc(-c3ccc(O)c(O)c3)oc12`, the IC50 came to 43.5 µM.

On to `CN1CCN(Cc2c(O)cc(O)c3c(=O)cc(-c4ccccc4)oc23)CC1`, for which the 50% inhibitory concentration (IC50) stood at 431 µM.

`O=c1cc(-c2ccccc2)oc2c(CN3CCCC(O)C3)c(O)cc(O)c12` (stereo not given): the IC50 came out at 259 µM.

Regarding `CC1CCCCN1Cc1c(O)cc(O)c2c(=O)cc(-c3ccc(O)c(O)c3)oc12` (stereo not given), the IC50 was 161 µM.

In the case of `O=c1cc(-c2ccccc2)oc2c(CN3CCN(CCO)CC3)c(O)c(O)c(O)c12`, the 50% inhibitory concentration (IC50) came to 276 µM.

With `O=c1cc(-c2ccc(O)cc2)oc2c(CN3CCN(Cc4ccccc4)CC3)c(O)cc(O)c12`, the IC50 stood at 48.5 µM.

Take `O=c1cc(-c2ccccc2)oc2c(CN3CCCCC3)c(O)c(O)c(O)c12`: the half-inhibitory concentration (IC50) was 104 µM.

As for `CC1CCN(Cc2c(O)cc(O)c3c(=O)cc(-c4ccc(O)cc4)oc23)CC1`, the IC50 came out at 164 µM.

Take `CN1CCN(Cc2c(O)cc(O)c3c(=O)cc(-c4ccc(O)cc4)oc23)CC1`: the 50% inhibitory concentration (IC50) stood at 148 µM.

Turning to `O=c1cc(-c2ccc(O)c(O)c2)oc2c(CN3CCOCC3)c(O)cc(O)c12`, the IC50 turned out to be 81.9 µM.

Turning to `O=c1cc(-c2ccccc2)oc2c(CN3CCCC3)c(O)c(O)c(O)c12`, the half-maximal inhibitory concentration (IC50) amounted to 107 µM.

For `O=c1cc(-c2ccc(O)cc2)oc2c(CN3CCOCC3)c(O)cc(O)c12`, the half-inhibitory concentration (IC50) is 50.5 µM.

`O=c1cc(-c2ccccc2)oc2c(CN3CCCC3)c(O)cc(O)c12`: the 50% inhibitory concentration (IC50) was 182 µM.

On to `O=c1cc(-c2ccc(O)c(O)c2)oc2c(CN3CCCC(O)C3)c(O)cc(O)c12` (stereo not given), for which the IC50 stood at 63.6 µM.

For the compound `O=c1cc(-c2ccccc2)oc2c(CN3CCCC(O)C3)c(O)c(O)c(O)c12` (stereo not given), the IC50 stood at 68.2 µM.

In the case of `O=c1cc(-c2ccccc2)oc2c(CN3CCC(CO)CC3)c(O)cc(O)c12`, the IC50 amounted to 83.7 µM.

For the compound `O=c1cc(-c2ccc(O)cc2)oc2c(CN3CCC[C@H]3CO)c(O)cc(O)c12`, the IC50 was 49.7 µM.

For the compound `O=c1cc(-c2ccc(O)cc2)oc2c(CN3[C@H](O)COC[C@@H]3O)c(O)cc(O)c12`, the IC50 worked out at 64 µM.

A word on the IC50: it is the concentration needed to halve the response being measured.
